The assay concerns SLX4 Thr1260. Kind of assay: SLX4 Thr1260 phosphorylation in mitotic HEK293TN cells (western blot). The following applies: acute CDK1i (RO-3306 7 µM, 30 min) after 18 h 100 ng/ml nocodazole; eGFP-SLX4 or eGFP-TOPBP1 Co-IP. The class given is cell-based, human. Here is the method:
GFP-Trap® Agarose Co-immunoprecipitation
HEK293TN cells were seeded to be ~25–30% confluence the next day in a 15 cm tissue culture dish. The following day cells were transfected using Lipofectamine 2000 transfection reagent (Thermo Fisher Scientific) with 24 µg of plasmid DNA encoding eGFP-SLX4 or eGFP-TOPBP1 expression cassettes following manufacturer’s instructions.
Forty eight hours post transfection cells were harvested after treatments as described, snap frozen on dry ice and stored at −80 °C. Cell pellets were removed from −80 storage and thawed on ice in 2.4 ml IP buffer 1 (100 mM NaCl, 0.2% Igepal CA-630, 1 mM MgCl2, 10% glycerol, 5 mM NaF, 50 mM Tris-HCl, pH 7.5), supplemented with EDTA Free […] protease inhibitor (Sigma Aldrich) and 25 U ml−1 Benzonase (Novagen). Cells were resuspended and rotated at 4 °C for 90 min. Benzonase was then inhibited by adjusted NaCl concentration to 200 mM and with the addition of 2 mM EDTA, followed by rotation for a further 30 min at 4 °C on a carousel. The cell suspension was then centrifuged at 16,000 x g for 25 min at 4 °C. […] The supernatant, now containing eluted material, was transferred to a new 1.5 ml microcentrifuge tube ready for downstream western blot analysis.
(A western blot detects proteins with antibodies after separation by electrophoresis.)

Each structure is given as a SMILES string. “Also recorded” adds a separate entry of the source.

Regarding `O=C1NC(=NCc2cccs2)S/C1=C\c1ccc2ncccc2c1` [CDK1i], the “SLX4 Thr1260 phosphorylation” value is “reduced; also recorded: marked reduction in SLX4 Thr1260 phosphorylation”.
